This is an account of results in US6177438A, “Morphinan derivatives and pharmaceutical use thereof” (priority 1993, dated 2001).

One experiment has as its target T1, κ receptor (Mus musculus, UniProt P33534).
T1 construct: from tissue; host or cells: mouse (male ddy) vas deferens
Briefly: Opioid activity test using an extracted mouse vas deferens preparation, Ke with norBNI. On the set-up: species or system male ddy mouse. To be noted: for receptor selectivity of agonist (κ): in words; for Ke, norBNI: κ, norBNI added. As to the method: (§1) A male ddy mouse was used in this test. The vas deferens extracted from the animal was suspended in a Magnus tube filled with Krebes-Henseleit solution (NaCl 118 mM; KCl 4.7 mM; CaCl2 2.5 mM; KH2 PO4 1.1 mM; NaHCO3 25 mM; Glucose 11 mM) warmed to 37° C. and ventilated with 5% carbon dioxide and 95% oxygen. Electrical stimulus was performed at 0.1 Hz for 5.0 ms by means of ring-shaped platinum electrodes located above and below. Tissue contractions were recorded on a polygraph using an isometric transducer.
(§2) After adequately washing with nutrient solution and the contraction reaction stabilized, the μ agonist, naloxone, the δ agonist, NTI, or the κ agonist, norBNI, was added after which the test compound was again cumulatively added after roughly 20 minutes. The Ke value was calculated using the following calculation formula from the difference in the efficacies of both agonists.
Ke=[Conc. of added agonist]/(IC50 ratio-1)
IC50 ratio=IC50 in the presence of agonist/IC50 in the absence of agonist

Experiment [1] concerns extracted mouse vas deferens preparation. Briefly: Opioid activity test using an extracted mouse vas deferens preparation (suppression of electrically induced contractions). Also noted: species or system male ddy mouse. To be noted: electrical stimulus 0.1 Hz, 37° C. The method, then:
as §1, §2

The test system of experiment [2] is acetic acid-induced writhing in ddy mice. Briefly: animal or person. In kind it is in vivo, 5 week old ddy mice. The following applies: for ED50: s.c. 15 minutes before acetic acid. The method, then:
5 week old ddy mice were used in this test. After intraperitoneal administration of 0.1 ml of 0.6% aqueous acetic acid per 10 g of body weight, the number of writhing reactions that occurred in 10 minutes starting 10 minutes after administration was evaluated for the indicator. The test drug was administered subcutaneously into the backs of the animals 15 minutes before administration of acetic acid.

Experiment [3] is described as follows: Diuretic action (urine output for 5 hours after physiological saline loading in rats). In kind it is in vivo, male Wistar rats. The following applies: for ED (200% urine output) / ED (500% urine output): Rattus norvegicus, sc, 5 hours after saline 20 ml/kg p.o.; for ED (200% urine output): dose giving urine output of 200 (non-dosed group = 100); for ED (500% urine output): dose giving urine output of 500 (non-dosed group = 100). The method, then:
7-8 week old male Wistar rats were used in this test after prohibiting from drinking water for 1 hour before the start of testing. After discharging any urine accumulated in the bladder by gently stimulating the lower abdomens of the animals, the drug was administered subcutaneously. After 30 minutes, the animals were then forcibly given 20 ml/kg of physiological saline orally. The animals were placed in metabolic cages immediately after administration of the drug (2 animals/cage) and urine output for 5 hours after loading with physiological saline was measured. Drug efficacy was expressed in the form of those doses resulting in urine outputs of 200 and 500, respectively, when the urine output of a non-dosed group was taken to be 100. Those doses were expressed as the ED200 and ED500 values, respectively.

The target of the next experiment is T2, δ receptor (Mus musculus, UniProt P32300).
T2 construct: The vas deferens extracted from the animal was suspended in a Magnus tube; from tissue; host or cells: mouse (male ddy) vas deferens
T2 sequence (P32300 whole entry): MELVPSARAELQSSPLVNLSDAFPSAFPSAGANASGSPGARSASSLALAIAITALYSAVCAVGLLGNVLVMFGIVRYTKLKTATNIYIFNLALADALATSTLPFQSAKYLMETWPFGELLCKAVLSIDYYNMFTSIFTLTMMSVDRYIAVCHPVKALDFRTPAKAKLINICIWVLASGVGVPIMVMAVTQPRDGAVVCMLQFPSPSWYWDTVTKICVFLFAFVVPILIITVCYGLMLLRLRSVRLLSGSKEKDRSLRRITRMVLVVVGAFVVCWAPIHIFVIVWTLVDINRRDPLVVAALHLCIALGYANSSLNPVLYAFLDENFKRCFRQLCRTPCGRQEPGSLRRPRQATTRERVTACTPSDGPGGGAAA
Also noted: species or system male ddy mouse. To be noted: mouse vas deferens, δ, NTI added.

[4] abbreviates: Mus musculus, sc, read-out: ED50.

pIC50: −log10 of the molar value. Counter-ions that a name gives are not always drawn. Like-named read-outs stand apart in the source and are kept apart here.

T1 sequence (P33534 whole entry): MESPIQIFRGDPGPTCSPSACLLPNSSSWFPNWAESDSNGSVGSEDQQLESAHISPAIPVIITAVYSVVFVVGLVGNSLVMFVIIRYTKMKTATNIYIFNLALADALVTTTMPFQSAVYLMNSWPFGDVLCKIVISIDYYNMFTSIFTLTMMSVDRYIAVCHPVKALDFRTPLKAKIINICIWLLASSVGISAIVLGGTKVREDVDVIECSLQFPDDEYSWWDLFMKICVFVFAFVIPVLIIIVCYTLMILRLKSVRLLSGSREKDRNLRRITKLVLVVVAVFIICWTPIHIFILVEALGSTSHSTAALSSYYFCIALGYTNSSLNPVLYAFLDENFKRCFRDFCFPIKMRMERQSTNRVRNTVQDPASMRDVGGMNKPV

As a reminder, the pIC50 is the IC50 on a negative log10 scale, so that one unit is a factor of ten. Low readings indicate a large IC50, high ones a small IC50. One may read the ED50 as the dose that gives a 50% effect, or the effect in half of the subjects. On to `CCCCCCC(=O)N(C)[C@H]1CC[C@@]2(O)[C@H]3Cc4ccc(O)c5c4[C@@]2(CCN3CC2CC2)[C@H]1O5` [Compound 46, 17-cyclopropylmethyl-3,14β-dihydroxy-4,5α-epoxy-6α-(N-methylheptanamido)morphinan.cndot.hydrochloride], for which, on κ receptor, the “receptor selectivity of agonist (κ)” value was “selective agonists for κ receptors” and the “Ke, norBNI” value is listed as 0.440 nM. This compound had a pIC50 in experiment [1] of 8.98. In experiment [2] (setting [4]), the ED50 was 0.013 mg/kg.
As for `CCCCCC(=O)N(C)[C@@H]1CC[C@@]2(O)[C@H]3Cc4ccc(O)c5c4[C@@]2(CCN3CC2CC2)[C@H]1O5` [Compound 62, 17-cyclopropylmethyl-3,14β-dihydroxy-4,5α-epoxy-6β-(N-methylhexanamido)morphinan.cndot.tartrate], at κ receptor, the “receptor selectivity of agonist (κ)” value was “selective agonists for κ receptors” and the “Ke, norBNI” value is given as 0.203 nM. In experiment [3], this compound yielded an ED (200% urine output) of 0.101 mg/kg and an ED (500% urine output) of 7.04 mg/kg. Further, the pIC50 in experiment [1] was 7.83. Also, the ED50 in experiment [2] (setting [4]) came to 0.077 mg/kg. In addition, the “Ke, NTI” value on δ receptor is 90.2 nM.
Turning to `CN(C(=O)/C=C/c1ccco1)[C@@H]1CC[C@@]2(O)[C@H]3Cc4ccc(O)c5c4[C@@]2(CCN3CC2CC2)[C@H]1O5` [Compound 70, 17-cyclopropylmethyl-3,14β-dihydroxy-4,5α-epoxy-6β-[N-methyl-trans-3-(2-furyl)acrylamido]morphinan.cndot.hydrochloride], at κ receptor, the “receptor selectivity of agonist (κ)” value is “selective agonists for κ receptors” and the “Ke, norBNI” value came out at 0.198 nM. The pIC50 in experiment [1] is 9.26. The ED50 in experiment [2] (setting [4]) was 0.0016 mg/kg.
Turning to `CN(C(=O)/C=C/c1ccsc1)[C@H]1CC[C@@]2(O)[C@H]3Cc4ccc(O)c5c4[C@@]2(CCN3CC2CC2)[C@H]1O5` [Compound 91, 17-cyclopropylmethyl-3,14β-dihydroxy-4,5α-epoxy-6α-[N-methyl-trans-3-(3-thienyl)acrylamido]morphinan.cndot.tartrate], on κ receptor, the “receptor selectivity of agonist (κ)” value is recorded as “selective agonists for κ receptors” and the “Ke, norBNI” value amounted to 0.699 nM. For the same compound, in experiment [3], the ED (200% urine output) came to 0.0094 mg/kg and the ED (500% urine output) amounted to 0.96 mg/kg. In experiment [1], the pIC50 was 9.42. Further, in experiment [2] (setting [4]), the ED50 was found to be 0.019 mg/kg. Moreover, at δ receptor, the “Ke, NTI” value was found to be 450 nM.
Consider `CN(C(=O)CC(=O)c1ccccc1)[C@H]1CC[C@@]2(O)[C@H]3Cc4ccc(O)c5c4[C@@]2(CCN3CC2CC2)[C@H]1O5` [Compound 98, 17-cyclopropylmethyl-3,14β-dihydroxy-4,5α-epoxy-6α-(N-methylbenzoylacetamido)morphinan.cndot.tartrate], for which, at κ receptor, the “receptor selectivity of agonist (κ)” value was “selective agonists for κ receptors” and the “Ke, norBNI” value turned out to be 1.35 nM. In experiment [3], this compound came in with an ED (200% urine output) of 0.0065 mg/kg and an ED (500% urine output) of 0.206 mg/kg. This compound had a pIC50 in experiment [1] of 8.89. Besides, the ED50 in experiment [2] is 0.0068 mg/kg.
With `CN(C(=O)/C=C/c1cccc(F)c1)[C@@H]1CC[C@@]2(O)[C@H]3Cc4ccc(O)c5c4[C@@]2(CCN3CC2CC2)[C@H]1O5` [Compound 102, 17-cyclopropylmethyl-3,14β-dihydroxy-4,5α-epoxy-6β-(N-methyl-3-fluorocinnamamido)morphinan.cndot.tartrate], at κ receptor, the “receptor selectivity of agonist (κ)” value is “selective agonists for κ receptors” and the “Ke, norBNI” value came to 2.37 nM. In experiment [3], this compound displayed an ED (200% urine output) of 0.0014 mg/kg and an ED (500% urine output) of 0.0154 mg/kg. For the same compound, the pIC50 in experiment [1] is 8.80. In experiment [2] (setting [4]), the ED50 stood at 0.0019 mg/kg. Further, on δ receptor, the “Ke, NTI” value came out at 276 nM.
`CN(C(=O)CC(=O)c1ccccc1)[C@@H]1CC[C@@]2(O)[C@H]3Cc4ccc(O)c5c4[C@@]2(CCN3CC2CC2)[C@H]1O5` [Compound 103, 17-cyclopropylmethyl-3,14β-dihydroxy-4,5α-epoxy-6β-(N-methylbenzoylacetamido)morphinan.cndot.tartrate]: at κ receptor, the “receptor selectivity of agonist (κ)” value was “selective agonists for κ receptors” and the “Ke, norBNI” value is on record as 0.657 nM. Further, in experiment [3], the ED (200% urine output) was found to be 0.0827 mg/kg and the ED (500% urine output) stood at 5.65 mg/kg. In addition, the pIC50 in experiment [1] was 7.96. Moreover, the ED50 in experiment [2] (setting [4]) was found to be 0.069 mg/kg.
Consider `CN(C(=O)Cc1ccc(F)c(F)c1)[C@H]1CC[C@@]2(O)[C@H]3Cc4ccc(O)c5c4[C@@]2(CCN3CC2CC2)[C@H]1O5` [Compound 105, 17-cyclopropylmethyl-3,14β-dihydroxy-4,5α-epoxy-6α-(N-methyl-3,4-difluorophenylacetamido)morphinan.cndot.hydrochloride], for which, in experiment [3], the ED (200% urine output) amounted to 0.019 mg/kg and the ED (500% urine output) amounted to 3.3 mg/kg. Also, the ED50 in experiment [2] (setting [4]) amounted to 0.098 mg/kg.
Regarding `CN(C(=O)Cc1csc2ccccc12)[C@H]1CC[C@@]2(O)[C@H]3Cc4ccc(O)c5c4[C@@]2(CCN3CC2CC2)[C@H]1O5` [Compound 107, 17-cyclopropylmethyl-3,14β-dihydroxy-4,5α-epoxy-6α-(N-methyl-3-benzo[b]thienylacetamido)morphinan.cndot.hydrochloride], in experiment [3], the ED (200% urine output) amounted to 0.0061 mg/kg and the ED (500% urine output) was determined as 0.2 mg/kg. Also, in experiment [2] (setting [4]), the ED50 turned out to be 0.023 mg/kg.
`CN(C(=O)/C=C/c1ccc(Br)cc1)[C@@H]1CC[C@@]2(O)[C@H]3Cc4ccc(O)c5c4[C@@]2(CCN3CC2CC2)[C@H]1O5` [Compound 156, 17-cyclopropylmethyl-3,14β-dihydroxy-4,5α-epoxy-6β-(N-methyl-4-bromocinnamamido)morphinan hydrobromide]: at κ receptor, the “receptor selectivity of agonist (κ)” value is “selective agonists for κ receptors” and the “Ke, norBNI” value is reported as 0.091 nM. In experiment [3], the ED (200% urine output) is 0.00545 mg/kg and the ED (500% urine output) stood at 0.355 mg/kg. Further, in experiment [2] (setting [4]), the ED50 turned out to be 0.0056 mg/kg.
In the case of `C/C=C/C=C/C(=O)N(C)[C@@H]1CC[C@@]2(O)[C@H]3Cc4ccc(O)c5c4[C@@]2(CCN3CC2CC2)[C@H]1O5` [Compound 178, 17-cyclopropylmethyl-3,14β-dihydroxy-4,5α-epoxy-6β-(N-methyl-trans,trans-2,4-hexadienoylamido)morphinan tartrate], in experiment [3], the ED (200% urine output) was 0.00094 mg/kg and the ED (500% urine output) amounted to 0.0045 mg/kg. Moreover, in experiment [3] (s.c., from ED200 values), the “Diuretic action (in words)” value is “extremely strong diuretic action”. Moreover, the ED50 in experiment [2] (setting [4]) amounted to 0.0016 mg/kg. Moreover, the analgesic activity entry in experiment [2] (s.c., in words) is “particularly strong analgesic activity”.
As to `COc1cccc(C#CC(=O)N(C)[C@H]2CC[C@@]3(O)[C@H]4Cc5ccc(O)c6c5[C@@]3(CCN4CC3CC3)[C@H]2O6)c1.O=C(O)C(O)C(O)C(=O)O` [Compound 184, 17-cyclopropylmethyl-3,14β-dihydroxy-4,5α-epoxy-6α-[N-methyl-3-(3-methoxyphenyl)propiolamido]morphinan tartrate], in experiment [3], the ED (200% urine output) was found to be 0.00444 mg/kg and the ED (500% urine output) was 0.0326 mg/kg. For the same compound, the ED50 in experiment [2] (setting [4]) was determined as 0.0043 mg/kg.
